# What was measured:
# GAT-3 = molecular target: T1, GAT-3 (Mus musculus, UniProt P31650); experiment: Tonic GABA current, whole-cell patch clamp in dentate granule cells of hippocampal slices, GAT-3 block; type: cell-based; conditions: 50 μM; AD (5xFAD) dentate granule cells
# T1 construct: from tissue; host or cells: mouse hippocampal slices (5xFAD and WT littermates), dentate gyrus
# T1 sequence (P31650 1-627): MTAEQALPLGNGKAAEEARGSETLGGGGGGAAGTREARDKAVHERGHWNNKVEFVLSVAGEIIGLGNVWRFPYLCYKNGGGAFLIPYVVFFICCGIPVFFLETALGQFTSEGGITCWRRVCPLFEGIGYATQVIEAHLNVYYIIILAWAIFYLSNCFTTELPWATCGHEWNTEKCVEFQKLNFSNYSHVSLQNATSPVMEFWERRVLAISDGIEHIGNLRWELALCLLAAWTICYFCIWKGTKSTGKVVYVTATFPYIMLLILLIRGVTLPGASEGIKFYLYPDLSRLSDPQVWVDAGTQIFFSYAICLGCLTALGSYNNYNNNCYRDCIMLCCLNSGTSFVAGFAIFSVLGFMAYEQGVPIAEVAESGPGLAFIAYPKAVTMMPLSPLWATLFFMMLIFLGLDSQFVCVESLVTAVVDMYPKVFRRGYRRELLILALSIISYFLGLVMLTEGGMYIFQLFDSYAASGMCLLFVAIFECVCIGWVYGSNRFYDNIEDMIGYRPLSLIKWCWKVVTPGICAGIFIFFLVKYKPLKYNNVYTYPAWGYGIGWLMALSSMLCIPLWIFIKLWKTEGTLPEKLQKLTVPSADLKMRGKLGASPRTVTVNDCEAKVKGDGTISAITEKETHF
# Procedure: (§1) Mice were anesthetized with 2.5% Avertin. After decapitation, brains were rapidly dissected out and placed in ice-cold cutting solution containing: 79 mM NaCl, 80 mM sucrose, 26 mM NaHCO3, 10 mM glucose, 2.5 mM KCl, 1.25 mM NaH2PO4, 7 mM MgSO4, and 0.5 mM CaCl2 for tonic current recordings. The cutting solution for field EPSP recordings contained: 230 mM sucrose, 26 mM NaHCO3, 20 mM glucose, 2.5 mM KCl, 1.25 mM NaH2PO4, 10 mM MgSO4, and 0.5 mM CaCl2. Both solutions were bubbled with 95% O2/5% CO2. […]
# (§2) Whole-cell voltage clamp recordings were performed on dentate gyrus granule cells using a pipette solution containing: 135 mM CsCl, 5 mM Na-phosphocreatine, 10 mM HEPES, 5 mM EGTA, 4 mM MgATP, 5 mM QX-314, and 0.5 mM Na2GTP (pH 7.3 adjusted with CsOH, 280-290 mOsm/L). […] Data was acquired using pClamp 9 software (Molecular Devices; sampled at 10 kHz and filtered at 1 kHz), and analyzed with Clampfit 9.0 software (Molecular Devices). Field excitatory postsynaptic potentials (fEPSPs) were recorded with glass electrodes filled with 1 M NaCl and 25 mM HEPES (pH 7.3), and were evoked every 20 seconds with a parallel bipolar tungsten electrode (MicroProbes, USA), which was placed at medial perforant path in the dentate gyrus. […]
# LTP in DG = experiment: Long-term potentiation (LTP) in dentate gyrus, hippocampal slice field EPSP recordings; type: cell-based, mouse; conditions: 50 μM; 5xFAD dentate granule cells
# Procedure: as §1, §2
# human GAT-2 polypeptide = molecular target: T2, human GAT-2 polypeptide (Homo sapiens, UniProt Q9NSD5); conditions: cited from earlier work
# T2 sequence (Q9NSD5 1-602): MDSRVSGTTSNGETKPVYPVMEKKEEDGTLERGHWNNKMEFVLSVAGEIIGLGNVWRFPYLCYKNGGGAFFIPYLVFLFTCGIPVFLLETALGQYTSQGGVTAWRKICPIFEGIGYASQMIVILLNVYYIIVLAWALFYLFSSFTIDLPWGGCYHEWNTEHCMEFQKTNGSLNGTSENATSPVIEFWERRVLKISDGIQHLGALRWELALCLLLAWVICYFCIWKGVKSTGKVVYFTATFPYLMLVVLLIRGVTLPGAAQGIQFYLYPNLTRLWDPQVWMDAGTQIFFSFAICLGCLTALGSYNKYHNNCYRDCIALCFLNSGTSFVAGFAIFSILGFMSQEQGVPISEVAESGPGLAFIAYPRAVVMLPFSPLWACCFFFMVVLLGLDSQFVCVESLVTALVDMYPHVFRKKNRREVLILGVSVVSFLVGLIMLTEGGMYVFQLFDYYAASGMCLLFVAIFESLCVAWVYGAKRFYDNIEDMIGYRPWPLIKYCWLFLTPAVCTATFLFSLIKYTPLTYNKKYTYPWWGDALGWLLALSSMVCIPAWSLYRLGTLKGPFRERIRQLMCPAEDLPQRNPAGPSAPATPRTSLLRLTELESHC
structure (smiles),measurement,setting,value
"COc1ccc(C(OCCN2CCC[C@H](C(=O)O)C2)(c2ccc(OC)cc2)c2ccc(OC)cc2)cc1 [SNAP-5114, (S)-1-[2-[tris(4-methoxyphenyl)methoxy]ethyl]-3-piperidinecarboxylic acid]",block of tonic GABA current,GAT-3,blocked the majority of the tonic GABA current
same,effect on LTP impairment,LTP in DG,rescued the LTP impairment
same,IC50,human GAT-2 polypeptide,> 15 µM
